{"source": "patent US5214055A", "about": "“Aminopiperidine 4-oxo-4H-chromen-2-yl compounds” (Adir et Compagnie, priority 1990, dated 1993)", "key": {"[1]": {"molecular_target": "T1, 5HT1A receptor (Rattus norvegicus, UniProt P19327)", "T1 construct": "Subcutaneous injection of rats with 8-OH-DPAT spontaneously induces tail movements; from tissue; host or cells: whole living rat (in vivo)", "T1 sequence (P19327 1-422)": "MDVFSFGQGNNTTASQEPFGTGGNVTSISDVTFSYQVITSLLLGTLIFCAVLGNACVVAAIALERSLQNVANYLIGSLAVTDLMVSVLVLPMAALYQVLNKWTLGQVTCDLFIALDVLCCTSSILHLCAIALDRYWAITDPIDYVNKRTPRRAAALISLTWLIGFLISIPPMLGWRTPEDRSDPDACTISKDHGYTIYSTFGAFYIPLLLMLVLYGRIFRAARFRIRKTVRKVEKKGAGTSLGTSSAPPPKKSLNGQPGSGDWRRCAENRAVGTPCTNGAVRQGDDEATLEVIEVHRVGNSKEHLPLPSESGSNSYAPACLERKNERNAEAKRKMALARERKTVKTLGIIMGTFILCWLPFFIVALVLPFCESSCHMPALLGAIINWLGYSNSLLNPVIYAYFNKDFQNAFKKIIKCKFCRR", "test": "\"Tail-Flicks\" test on rats (reduction of 8-OH-DPAT induced tail movements)", "assay_type": "in vivo", "conditions": "sc, tail movements induced by subcutaneous 8-OH-DPAT, read-out: ED50 (amount that reduces 8-OH-DPAT action by 50%)", "source_text": "a) \"Tail-Flicks\" test on rats\nSubcutaneous injection of rats with 8-OH-DPAT spontaneously induces tail movements (\"Tail-Flicks\"). These movements are reduced in a specific manner by 5HT1A receptor antagonists. The ED50 values, that is to say those amounts of the compounds of the invention that reduce 8-OH-DPAT action by 50%, are listed in Table II."}, "[2]": {"molecular_target": "sigma receptor", "test": "Sigma binding test (in vitro), inhibition of [3H] ditolylguanidine binding", "design": "species or system guinea pig", "procedure": "b) Sigma binding test (in vitro)\nThe affinity of the compounds of the invention to the sigma receptor in brain tissue is evaluated by the degree of inhibition of the binding of a sigma site radioligand in in vitro competition experiments.\nThe experiment protocol used is that described by WEBER et at. Proc. Nat. Acad. Sci. USA, (1986), 83, 8784-8788.\nThe ligand is 1,2-di-(2-[5-^3 H]tolyl)guanidine (Dupont de Nemours--55 Ci/mmol) at a final concentration of 2 nM.\nThe membrane preparation is a suspension of central nervous system microsomes of a guinea pig used at a final concentration of 0.5 mg of prot/ml.\nThe non-specific fixation is determined in the presence of 10 μM of haloperidol.\nThe results, given in Table III, to illustrate the invention are expressed at IC50 =K.0.5 (M)"}, "[3]": {"conditions": "guinea pig central nervous system microsomes, 0.5 mg of prot/ml, ligand 2 nM, non-specific: 10 μM haloperidol"}}, "note": "Counter-ions that a name gives are not always drawn. Like-named read-outs stand apart in the source and are kept apart here.", "data": [{"smiles": "C=COC(=O)N(C)C1CCN(CC2Cc3ccccc32)CC1", "note": "(racemic) [Example 42, (R,S)-vinyl N-[1-(benzocyclobuten-1ylmethyl)-piperid-4-yl]-N-methylcarbamate hydrochlo ride]", "values": [{"measurement": "ED50", "setting": "[1]", "value": 1.25, "unit": "mg/kg"}, {"measurement": "IC50", "setting": "[2]; [3]", "value": 50, "unit": "nM"}]}, {"smiles": "COC(=O)N(C)C1CCN(CC2Cc3ccccc32)CC1", "note": "(stereo not drawn) [Example 8, Methyl [1-benzocyclobuten-1-ylmethyl)-piperid-4-yl]-N-methylcarbamate hydrochloride]", "values": [{"measurement": "ED50", "setting": "[1]", "value": 1.25, "unit": "mg/kg"}]}, {"smiles": "CCCOC(=O)N(C)C1CCN(CC2Cc3ccccc32)CC1", "note": "(stereo not drawn) [Example 9, Propyl N-[1-(benzocyclobuten-1-ylmethyl)-piperid-4-yl]-N-methylcarbamate hydrochloride]", "values": [{"measurement": "ED50", "setting": "[1]", "value": 0.31, "unit": "mg/kg"}, {"measurement": "IC50", "setting": "[2]; [3]", "value": 30, "unit": "nM"}]}, {"smiles": "CN(C(=O)OC(C)(C)C)C1CCN(CC2Cc3ccccc32)CC1", "note": "(stereo not drawn) [Example 11, Tert-butyl N-[1-(benzocyclobuten-1-ylmethyl)-piperid-4-yl]-N-methylcarbamate hydrochl oride]", "values": [{"measurement": "ED50", "setting": "[1]", "value": 2.5, "unit": "mg/kg"}]}, {"smiles": "CN(C(=O)Oc1ccccc1)C1CCN(CC2Cc3ccccc32)CC1", "note": "(stereo not drawn) [Example 12, Phenyl N-[1-(benzocyclobuten-1-ylmethyl)-piperid-4-yl]-N-methylcarbamate hydrochloride]", "values": [{"measurement": "IC50", "setting": "[2]", "value": 30, "unit": "nM"}]}, {"smiles": "CCOC(=O)N(CC)C1CCN(CC2Cc3ccccc32)CC1", "note": "(stereo not drawn) [Example 13, Ethyl N-[1-(benzocyclobuten-1-ylmethyl)-piperid-4-yl]-N-ethylcarbamate hydrochloride]", "values": [{"measurement": "ED50", "setting": "[1]", "value": 1.25, "unit": "mg/kg"}]}, {"smiles": "CCN(C(=O)OC)C1CCN(CC2Cc3ccccc32)CC1", "note": "(stereo not drawn) [Example 14, Methyl N-[1-(benzocyclobuten-1-ylmethyl)-piperid-4-yl]-N-ethylcarbamate hydrochloride]", "values": [{"measurement": "ED50", "setting": "[1]", "value": 0.02, "unit": "mg/kg"}]}, {"smiles": "CC(C)COC(=O)N(C)C1CCN(CC2Cc3ccccc32)CC1", "note": "(stereo not drawn) [Example 15, Isobutyl N-[1-(benzocyclobuten-1-ylmethyl)-piperid-4-yl]-N-methylcarbamate fumarate]", "values": [{"measurement": "ED50", "setting": "[1]", "value": 1.25, "unit": "mg/kg"}, {"measurement": "IC50", "setting": "[2]; [3]", "value": 100, "unit": "nM"}]}, {"smiles": "CN(C(=O)OCc1ccccc1)C1CCN(CC2Cc3ccccc32)CC1", "note": "(stereo not drawn) [Example 19, Benzyl N-[1-(benzocyclobuten-1-ylmethyl)-piperid-4-yl]-N-methylcarbamate hydrochloride]", "values": [{"measurement": "IC50", "setting": "[2]; [3]", "value": 30, "unit": "nM"}]}, {"smiles": "CCN(C(C)=O)C1CCN(CC2Cc3ccccc32)CC1", "note": "(stereo not drawn) [Example 21, N-[1-(benzocyclobuten-1-ylmethyl)-piperid-4-yl]-N-ethylacetamide hydrochloride]", "values": [{"measurement": "ED50", "setting": "[1]", "value": 0.63, "unit": "mg/kg"}]}, {"smiles": "CCOC(=O)N(C)C1CCN(CC2Cc3ccccc32)CC1", "note": "(stereo not drawn) [Example 23, Ethyl N-[1-(benzocyclobuten-1-ylmethyl)-piperid-4-yl]-N-methylcarbamate hydrochloride]", "values": [{"measurement": "ED50", "setting": "[1]", "value": 2.5, "unit": "mg/kg"}]}, {"smiles": "CCOC(=O)N(C)C1CCN(CC2Cc3c2ccc2c3OCO2)CC1", "note": "(stereo not drawn) [Example 28, Ethyl N-{1-[(3,4-methylenedioxybenzocyclobuten-1-yl)methyl[-piperid-4-yl}-N-methylcarbamate fumarate]", "values": [{"measurement": "ED50", "setting": "[1]", "value": 2.5, "unit": "mg/kg"}]}, {"smiles": "CC(C)COC(=O)N(C)C1CCN(C2Cc3ccccc3C2)CC1", "note": "[Example 43, Isobutyl N-[1-(indan-2-yl)-piperid-4-yl]-N-methylcarbamate fumarate]", "values": [{"measurement": "IC50", "setting": "[2]; [3]", "value": 4, "unit": "nM"}]}, {"smiles": "CCCOC(=O)N(C)C1CCN(C2Cc3ccccc3C2)CC1", "note": "[Example 44, Propyl N-[1-(indan-2-yl)-piperid-4-yl]-N-methylcarbamate]", "values": [{"measurement": "ED50", "setting": "[1]", "value": 2.5, "unit": "mg/kg"}, {"measurement": "IC50", "setting": "[2]; [3]", "value": 40, "unit": "nM"}]}]}
